Measurements as given in ChEMBL document CHEMBL1123450, “A theoretical study of the binding of polychlorinated biphenyls (PCBs), dibenzodioxins, and dibenzofuran to human plasma prealbumin” (J Med Chem, 1986).

experiment: KPCB/ K352 ratio of the compound

SMILES | Ratio
Oc1c(Cl)cc(-c2cc(Cl)c(O)c(Cl)c2)cc1Cl | 45.5
Oc1ccc(-c2c(Cl)cc(Cl)cc2Cl)cc1 | 2.91
Clc1cc(-c2cc(Cl)c(Cl)c(Cl)c2)cc(Cl)c1Cl | 27.7
Oc1c(Cl)cc(-c2ccc(Cl)cc2)cc1Cl | 27.5
O=C1C(Cl)=CC(=C2C=C(Cl)C(=O)C(Cl)=C2)C=C1Cl | 2.92
Oc1c(I)cc(I)cc1I | 33.8
Oc1c(Cl)cc(-c2ccccc2)cc1Cl | 45
Oc1c(Cl)cc(Cl)cc1-c1ccccc1 | 1
Oc1ccc(-c2cc(Cl)c(Cl)c(Cl)c2Cl)cc1 | 24.3
